Experiment [1] concerns the target T1, human JAK3 (a.a. 781-1124) (Homo sapiens, UniProt P52333).
T1 construct: JAK3 (a.a. 781-1124); His tag (N); made in house; host or cells: insect cells (baculovirus)
Description: In vitro JAK kinase assay (HTRF), JAK3. Type of experiment: biochemical. The conditions noted are these: JAK3, 3 μM ATP; read-out: EXAMPLE A JAK2-JAK3 HTRF-2 IC50. As for the experimental part:
(§1) Compounds herein were tested for inhibitory activity of JAK targets according to the following in vitro assay described in Park et al., Analytical Biochemistry 1999, 269, 94-104. The catalytic domains of human JAK1 (a.a. 837-1142), JAK2 (a.a. 828-1132) and JAK3 (a.a. 781-1124) with an N-terminal His tag were expressed using baculovirus in insect cells and purified. The catalytic activity of JAK1, JAK2 or JAK3 was assayed by measuring the phosphorylation of a biotinylated peptide. The phosphorylated peptide was detected by homogenous time resolved fluorescence (HTRF). IC50s of compounds were measured for each kinase in the reactions that contain the enzyme, ATP and 500 nM peptide in 50 mM Tris (pH 7.8) buffer with 100 mM NaCl, 5 mM DTT, and 0.1 mg/mL (0.01%) BSA. The ATP concentration in the reactions was 90 μM for JAK1, 30 μM for JAK2 and 3 μM for JAK3. Reactions were carried out at room temperature for 1 hr and then stopped with 20 μL 45 mM EDTA, 300 nM SA-APC, 6 nM Eu—Py20 in assay buffer (Perkin Elmer, Boston, Mass.). Binding to the Europium labeled antibody took place for 40 minutes and HTRF signal was measured on a Fusion plate reader (Perkin Elmer, Boston, Mass.).
For orientation: In TR-FRET formats the signal depends on donor and acceptor labels being close together.

For experiment [2], the target named is T2, human JAK1 (a.a. 837-1142) (Homo sapiens, UniProt P23458).
T2 construct: human JAK1 (a.a. 837-1142); His tag (N); made in house; host or cells: insect cells (baculovirus)
Description: In vitro JAK kinase assay (HTRF), JAK1. Type of experiment: biochemical. The conditions noted are these: JAK1, 90 μM ATP; read-out: EXAMPLE A JAK2-JAK1 HTRF-2 IC50. On the procedure:
as §1

A further experiment addresses TF1-BCRABL1 cells (Homo sapiens, UniProt P00519). Kind of experiment: ABL1 cell based assay: viability of ABL1-dependent cell line (CellTiter-Glo). The conditions noted are these: 72 hours, cell viability; read-out: EXAMPLE F JAK2-TF1-BCRABL1 IC50. As for the experimental part: One or more compounds herein were tested for inhibitory activity of ABL1 targets according to at least one of the following cellular assays.
Cancer cell lines dependent on ABL1 kinase activity for proliferation and/or survival were plated at 3000 cells per well (96 well plate format) in RPMI 1640, and 10% FBS. Compounds were added to the cells in DMSO/media (final concentration 0.2% DMSO) and incubated for 72 hours at 37° C., 5% CO2. The effect of compound on cell viability was assessed using the CellTiter-Glo Luminescent Cell Viability Assay (Promega) followed by TopCount (Perkin Elmer, Boston, Mass.) quantitation. ABL1-dependent cell lines can include those naturally dependent on ABL1 activity or those engineered to be dependent on ABL1 activity (e.g. BaF/3 cells). The latter can be generated using wild-type ABL1 or mutant ABL1 (such as T315I ABL1) so that the activity of compounds can be assessed against different variants of the ABL1 kinase. Potential off-target effects of compounds were measured in parallel using a non-ABL1 driven cell line with the same assay readout. […] All experiments were performed in duplicate or greater.
Background: In ATP-based viability assays light output follows the ATP content of the culture.

For experiment [3], the target named is T3, human JAK2 (a.a. 828-1132) (Homo sapiens, UniProt O60674).
T3 construct: JAK2 (a.a. 828-1132); His tag (N); made in house; host or cells: insect cells (baculovirus)
Kind of experiment: In vitro JAK kinase assay (HTRF), JAK2. Type of experiment: biochemical. The conditions noted are these: JAK2, 30 μM ATP; read-out: EXAMPLE A HTS-JAK2 HTRF-2 IC50. On the procedure: as §1

The test system of experiment [4] is JAK2_INA61 (cancer cell line dependent on cytokines and JAK/STAT signal transduction). Kind of experiment: Cellular assay: viability of cytokine-dependent cancer cell line (CellTiter-Glo). Type of experiment: cell-based. The conditions noted are these: 72 hours, read-out: EXAMPLE B JAK2_INA61 IC50. As for the experimental part:
One or more compounds herein were tested for inhibitory activity of JAK targets according to at least one of the following cellular assays.
Compounds were added to the cells in DMSO/media (final concentration 0.2% DMSO) and incubated for 72 hours at 37° C., 5% CO2. The effect of compound on cell viability was assessed using the CellTiter-Glo Luminescent Cell Viability Assay (Promega) followed by TopCount (Perkin Elmer, Boston, Mass.) quantitation. Potential off-target effects of compounds were measured in parallel using a non-JAK driven cell line with the same assay readout. […] All experiments were performed in duplicate.

Where a name gives a salt, the structure may show the parent alone. Some results are limits rather than exact numbers.

The term IC50 denotes the concentration that gives 50% inhibition.

Sequence of TF1-BCRABL1 cells (P00519 whole entry, change not shown): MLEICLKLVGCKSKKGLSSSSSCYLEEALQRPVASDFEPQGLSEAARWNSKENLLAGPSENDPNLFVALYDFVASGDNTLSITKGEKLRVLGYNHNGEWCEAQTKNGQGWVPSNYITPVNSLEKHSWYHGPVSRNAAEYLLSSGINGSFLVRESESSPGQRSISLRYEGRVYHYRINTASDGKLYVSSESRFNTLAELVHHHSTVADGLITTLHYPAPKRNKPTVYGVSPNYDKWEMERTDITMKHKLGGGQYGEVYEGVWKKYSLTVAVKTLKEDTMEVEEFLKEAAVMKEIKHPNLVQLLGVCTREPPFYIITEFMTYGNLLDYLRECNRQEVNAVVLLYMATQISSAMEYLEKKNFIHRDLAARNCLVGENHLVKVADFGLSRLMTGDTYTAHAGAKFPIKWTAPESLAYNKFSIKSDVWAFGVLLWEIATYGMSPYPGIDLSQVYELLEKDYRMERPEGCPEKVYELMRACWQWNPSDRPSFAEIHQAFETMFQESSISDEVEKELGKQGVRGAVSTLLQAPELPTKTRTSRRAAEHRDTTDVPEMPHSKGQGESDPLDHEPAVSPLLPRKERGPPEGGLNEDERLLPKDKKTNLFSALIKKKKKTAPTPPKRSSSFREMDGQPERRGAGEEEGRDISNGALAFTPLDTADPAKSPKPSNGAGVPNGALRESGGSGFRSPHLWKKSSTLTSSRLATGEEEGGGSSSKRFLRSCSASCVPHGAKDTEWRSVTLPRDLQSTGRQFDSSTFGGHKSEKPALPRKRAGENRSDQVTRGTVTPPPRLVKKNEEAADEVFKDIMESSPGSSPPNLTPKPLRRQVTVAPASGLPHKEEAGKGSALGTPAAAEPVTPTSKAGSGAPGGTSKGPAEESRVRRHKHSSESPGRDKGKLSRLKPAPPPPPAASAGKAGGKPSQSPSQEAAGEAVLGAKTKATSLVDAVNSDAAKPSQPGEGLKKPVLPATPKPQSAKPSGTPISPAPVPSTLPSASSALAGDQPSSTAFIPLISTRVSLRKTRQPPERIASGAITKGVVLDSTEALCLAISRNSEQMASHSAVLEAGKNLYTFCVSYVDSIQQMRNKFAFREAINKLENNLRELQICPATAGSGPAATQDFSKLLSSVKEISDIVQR
T3 sequence (O60674 828-1132): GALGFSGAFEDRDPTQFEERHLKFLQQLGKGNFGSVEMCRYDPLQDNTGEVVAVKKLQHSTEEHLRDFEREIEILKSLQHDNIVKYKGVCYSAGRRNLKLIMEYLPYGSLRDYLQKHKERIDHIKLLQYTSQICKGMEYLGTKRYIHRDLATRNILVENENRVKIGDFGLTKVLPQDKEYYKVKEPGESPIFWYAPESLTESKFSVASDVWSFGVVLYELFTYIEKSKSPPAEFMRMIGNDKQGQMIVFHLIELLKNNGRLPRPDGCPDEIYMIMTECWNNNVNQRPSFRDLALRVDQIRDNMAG
T2 sequence (P23458 849-1154): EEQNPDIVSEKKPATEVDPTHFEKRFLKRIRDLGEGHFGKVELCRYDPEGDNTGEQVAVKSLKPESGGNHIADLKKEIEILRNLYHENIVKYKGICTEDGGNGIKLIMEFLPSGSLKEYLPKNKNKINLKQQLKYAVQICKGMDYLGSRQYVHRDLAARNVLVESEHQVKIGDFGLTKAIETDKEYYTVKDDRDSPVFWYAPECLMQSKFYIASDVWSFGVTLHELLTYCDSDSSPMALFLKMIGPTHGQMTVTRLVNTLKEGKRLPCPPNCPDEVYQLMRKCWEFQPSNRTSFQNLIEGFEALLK
T1 sequence (P52333 781-1124): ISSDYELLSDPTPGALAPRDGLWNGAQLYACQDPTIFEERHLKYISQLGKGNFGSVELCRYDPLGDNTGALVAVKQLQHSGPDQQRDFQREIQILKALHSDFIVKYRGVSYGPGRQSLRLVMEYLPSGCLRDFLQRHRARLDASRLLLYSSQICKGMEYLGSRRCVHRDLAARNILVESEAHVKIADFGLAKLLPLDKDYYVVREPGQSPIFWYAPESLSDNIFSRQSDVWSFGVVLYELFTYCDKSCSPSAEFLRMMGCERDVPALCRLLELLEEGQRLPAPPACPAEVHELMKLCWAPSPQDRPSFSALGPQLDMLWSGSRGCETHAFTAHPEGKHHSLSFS

For `Cc1ccc(NC(=O)c2cccc(C(F)(F)F)c2)cc1-c1ccc2c(c1)[nH]c1ncncc12` [Example 1, N-[4-Methyl-3-(9H-pyrimido[4,5-b]indol-7-yl)phenyl]-3-(trifluoromethyl)benzamide trifluoroacetate], the IC50 in experiment [1], in experiment [2], in experiment [3] and in experiment [4] was ≤ 500 nM each time. Also, at TF1-BCRABL1 cells, the GI50 was ≤ 500 nM.

Consider `Cc1cn(-c2cc(C(=O)Nc3ccc(C)c(-c4ccc5c(c4)[nH]c4ncncc45)c3)cc(C(F)(F)F)c2)cn1` [Example 2, 3-(4-Methyl-1H-imidazol-1-yl)-N-[4-methyl-3-(9H-pyrimido[4,5-b]indol-7-yl)-phenyl]-5-(trifluoromethyl)benzamide bis(trifluoroacetate)], for which the half-maximal inhibitory concentration (IC50) in experiment [1] was ≤ 500 nM; in experiment [2] it was ≤ 500 nM; in experiment [3], ≤ 500 nM; in experiment [4], 500 to 1000 nM. The GI50 at TF1-BCRABL1 cells was ≤ 500 nM.

As to `Cc1ccc(NC(=O)c2cccc(C(F)(F)F)c2F)cc1-c1ccc2c(c1)[nH]c1ncncc12` [Example 3, 2-fluoro-N-[4-methyl-3-(9H-pyrimido[4,5-b]indol-7-yl)-phenyl]-3-(trifluoromethyl)-benzamide], the half-inhibitory concentration (IC50) in experiment [1], in experiment [2], in experiment [3] and in experiment [4] was ≤ 500 nM throughout. The GI50 on TF1-BCRABL1 cells is ≤ 500 nM.

As to `Cc1ccc(NC(=O)c2cccc(F)c2)cc1-c1ccc2c(c1)[nH]c1ncncc12` [Example 6, 3-fluoro-N-[4-methyl-3-(9H-pyrimido[4,5-b]indol-7-yl)-phenyl]benzamide], the concentration for half-maximal inhibition (IC50) in experiment [1] is ≤ 500 nM; in experiment [2], ≤ 500 nM; in experiment [3], ≤ 500 nM; in experiment [4], 500 to 1000 nM. Further, the GI50 on TF1-BCRABL1 cells is ≤ 500 nM.

For the compound `Cc1ccc(NC(=O)c2cc(C(F)(F)F)ccc2C(F)(F)F)cc1-c1ccc2c(c1)[nH]c1ncncc12` [Example 7, N-[4-methyl-3-(9H-pyrimido[4,5-b]indol-7-yl)phenyl]-2,5-bis(trifluoromethyl)benzamide], the IC50 in experiment [1] was ≤ 500 nM; in experiment [2], ≤ 500 nM; in experiment [3], > 1000 nM; in experiment [4], > 1000 nM. Further, the GI50 on TF1-BCRABL1 cells lay within 500 to 1000 nM.

`COc1cccc(C(=O)Nc2ccc(C)c(-c3ccc4c(c3)[nH]c3ncncc34)c2)c1` [Example 11, 3-methoxy-N-[4-methyl-3-(9H-pyrimido[4,5-b]indol-7-yl)-phenyl]benzamide]: the IC50 in experiment [1] was ≤ 500 nM; in experiment [2], ≤ 500 nM; in experiment [3], 500 to 1000 nM; in experiment [4], > 1000 nM. Moreover, the GI50 on TF1-BCRABL1 cells is ≤ 500 nM.

Regarding `Cc1ccc(NC(=O)c2ccccc2C(F)(F)F)cc1-c1ccc2c(c1)[nH]c1ncncc12` [Example 12, N-[4-methyl-3-(9H-pyrimido-[4,5-b]indol-7-yl)phenyl]-2-(trifluoromethyl)benzamide], the IC50 was ≤ 500 nM in experiment [1], ≤ 500 nM in experiment [2], > 1000 nM in experiment [3] and > 1000 nM in experiment [4]. The GI50 at TF1-BCRABL1 cells lay within 500 to 1000 nM.

As for `O=C(Nc1ccc(F)c(-c2ccc3c(c2)[nH]c2ncncc23)c1)c1cccc(C(F)(F)F)c1` [Example 13, N-[4-fluoro-3-(9H-pyrimido-[4,5-b]indol-7-yl)phenyl]-3-(trifluoromethyl)benzamide], the 50% inhibitory concentration (IC50) in experiment [1], in experiment [2], in experiment [3] and in experiment [4] was ≤ 500 nM in each case. At TF1-BCRABL1 cells, the GI50 is ≤ 500 nM.

In the case of `O=C(Nc1cccc(-c2ccc3c(c2)[nH]c2ncncc23)c1)c1cccc(C(F)(F)F)c1` [Example 14, N-[3-(9H-pyrimido[4,5-b]-indol-7-yl)phenyl]-3-(trifluoro-methyl)benzamide], the IC50 in experiment [1] was > 1000 nM; in experiment [2], ≤ 500 nM; in experiment [3] it was ≤ 500 nM; in experiment [4], > 1000 nM. For the same compound, the GI50 on TF1-BCRABL1 cells fell in the range of 500 to 1000 nM.

As for `Cc1ccc(NC(=O)c2cccc(Cl)c2)cc1-c1ccc2c(c1)[nH]c1ncncc12` [Example 15, 3-chloro-N-[4-methyl-3-(9H-pyrimido[4,5-b]indol-7-yl)-phenyl]benzamide], the IC50 in experiment [1], in experiment [2], in experiment [3] and in experiment [4] was ≤ 500 nM in each case. The GI50 on TF1-BCRABL1 cells is ≤ 500 nM.

In the case of `Cc1ccc(NC(=O)c2cccc(S(F)(F)(F)(F)F)c2)cc1-c1ccc2c(c1)[nH]c1ncncc12` [Example 16, N-[4-methyl-3-(9H-pyrimido-[4,5-b]indol-7-yl)phenyl]-3-(pentafluoro-λ(6)-sulfanyl)-benzamide], the 50% inhibitory concentration (IC50) in experiment [1] was ≤ 500 nM; in experiment [2], ≤ 500 nM; in experiment [3], ≤ 500 nM; in experiment [4] it was 500 to 1000 nM. Also, the GI50 at TF1-BCRABL1 cells was ≤ 500 nM.

Take `Cc1ccc(NC(=O)c2cc(F)cc(C(F)(F)F)c2)cc1-c1ccc2c(c1)[nH]c1ncncc12` [Example 19, 3-Fluoro-N-[4-methyl-3-(9H-pyrimido[4,5-b]indol-7-yl)phenyl]-5-(trifluoro-methyl)benzamide]: the IC50 in experiment [1], in experiment [2], in experiment [3] and in experiment [4] was ≤ 500 nM each time. Besides, the GI50 on TF1-BCRABL1 cells is ≤ 500 nM.

On to `Cc1ccc(NC(=O)c2cc(N3CCNCC3)cc(C(F)(F)F)c2)cc1-c1ccc2c(c1)[nH]c1ncncc12` [Example 28, N-[4-methyl-3-(9H-pyrimido-[4,5-b]indol-7-yl)phenyl]-3-piperazin-1-yl-5-(trifluoro-methyl)benzamide], for which the IC50 in experiment [1] was ≤ 500 nM; in experiment [2], ≤ 500 nM; in experiment [3], ≤ 500 nM; in experiment [4], 500 to 1000 nM. For the same compound, on TF1-BCRABL1 cells, the GI50 is ≤ 500 nM.

As to `Cc1ccc(NC(=O)c2cc(NCCN(C)C)cc(C(F)(F)F)c2)cc1-c1ccc2c(c1)[nH]c1ncncc12` [Example 38, 3-{[2-(dimethylamino)ethyl]-amino}-N-[4-methyl-3-(9H-pyrimido [4,5-b]indol-7-yl)-phenyl]-5-(trifluoromethyl) benzamide], the IC50 was ≤ 500 nM in experiment [1], ≤ 500 nM in experiment [2], ≤ 500 nM in experiment [3] and 500 to 1000 nM in experiment [4]. Further, the GI50 on TF1-BCRABL1 cells is ≤ 500 nM.

In the case of `Cc1ccc(NC(=O)c2ccc(F)c(C(F)(F)F)c2)cc1-c1ccc2[nH]c3ncncc3c2c1` [Example 42, 4-fluoro-N-[4-methyl-3-(9H-pyrimido[4,5-b]indol-6-yl)-phenyl]-3-(trifluoromethyl)-benzamide], the IC50 in experiment [1] was 500 to 1000 nM; in experiment [2] it was ≤ 500 nM; in experiment [3], ≤ 500 nM; in experiment [4], > 1000 nM. In addition, the GI50 at TF1-BCRABL1 cells is ≤ 500 nM.

Turning to `Cc1ccc(NC(=O)c2cc(F)cc(C(F)(F)F)c2)cc1-c1ccc2[nH]c3ncncc3c2c1` [Example 43, 3-fluoro-N-[4-methyl-3-(9H-pyrimido[4,5-b]indol-6-yl)-phenyl]-5-(trifluoromethyl)-benzamide], the IC50 is ≤ 500 nM in experiment [1], > 1000 nM in experiment [2], ≤ 500 nM in experiment [3] and 500 to 1000 nM in experiment [4]. The GI50 on TF1-BCRABL1 cells was ≤ 500 nM.

Values taken from patent US8513270B2, “Substituted heterocycles as Janus kinase inhibitors” (Incyte Corporation, priority 2006, dated 2013).
